Positions of bridges follow the written chain, without caps; N, C: chain ends. Non-standard residues stand in square brackets, D forms with d. Residues, ends and D or L forms follow the SMILES beside them. *: point of attachment. hPhe(3,5-F2-4-CF3) = N[C@@H](CCc1cc(F)c(C(F)(F)F)c(F)c1)C(=O)O; hPhe(3-Cl-4-CF3) = N[C@@H](CCc1ccc(C(F)(F)F)c(Cl)c1)C(=O)O; hPhe(3-F,4-CF3) = N[C@@H](CCc1ccc(C(F)(F)F)c(F)c1)C(=O)O; NMePhe(4-CF3) = CN[C@@H](Cc1ccc(C(F)(F)F)cc1)C(=O)O; NMePhe(4-Me) = CN[C@@H](Cc1ccc(C)cc1)C(=O)O; NMePhe(4-F) = CN[C@@H](Cc1ccc(F)cc1)C(=O)O; NMeGly(cPent) = CN[C@H](C(=O)O)C1CCCC1; Phe(3-I) = N[C@@H](Cc1cccc(I)c1)C(=O)O; Pro(4,4-F2) = O=C(O)[C@@H]1CC(F)(F)CN1; NMeCha = CN[C@@H](CC1CCCCC1)C(=O)O; Hyp = O=C(O)[C@@H]1C[C@@H](O)CN1; NEtLeu = CCN[C@@H](CC(C)C)C(=O)O; NMeChg = CN[C@H](C(=O)O)C1CCCCC1; NMeI = CC[C@H](C)[C@H](NC)C(=O)O; NMeD = CN[C@@H](CC(=O)O)C(=O)O; NMeL = CN[C@@H](CC(C)C)C(=O)O; d(β3hA) = C[C@@H](N)CC(=O)O; Morpholide = C1CN(*)CCO1; NMeA = CN[C@@H](C)C(=O)O; NMeAib = CNC(C)(C)C(=O)O; Piperidide = C1CCN(*)CC1; Pra = C#CC[C@H](N)C(=O)O; Pyrrolidide = C1CCN(*)C1; Ac5c = NC1(C(=O)O)CCCC1; Aze = O=C(O)[C@@H]1CCN1; Sar = CNCC(=O)O
Each molecule was assayed against T1, Kras and SOS1 (biotin-tagged human Kras loaded with GDP, His-tagged human SOS1) (Homo sapiens, UniProt P01116, G12D) (assay: Protein-protein interaction inhibition between Kras and SOS1 (KrasGl2D-SOS PPI) using AlphaScreen). Conditions: AlphaScreen; biotin-tagged human Kras loaded with GDP, His-tagged human SOS1; read-out: KRAS G12D-SOS PPI IC50.
T1 construct: made in house; host or cells: E. coli (stated for Kras only)
T1 sequence (P01116 1-188 isoform P01116-2 G12D): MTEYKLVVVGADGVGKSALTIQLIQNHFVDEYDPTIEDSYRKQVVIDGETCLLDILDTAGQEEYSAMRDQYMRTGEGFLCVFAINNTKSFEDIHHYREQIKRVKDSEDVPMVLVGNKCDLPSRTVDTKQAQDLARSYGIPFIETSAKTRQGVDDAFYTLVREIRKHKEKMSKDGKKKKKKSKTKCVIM
Assay type: binding
How it was run: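 Energy transfer from nickel-chelate donor beads bound to His-SOS1 to streptavidin acceptor beads bound to biotin-Kras, expressed in E. coli and loaded with GDP after purification, was monitored. Donors were excited at 680 nm; singlet oxygen reaching acceptors gave emission read at 520-620 nm.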
Work on `CC[C@H](C)[C@@H]1NC(=O)[C@H](CC(C)C)N(CC)C(=O)C[C@@H](C(=O)N(C)C)N(C)C(=O)[C@H](C2CCCC2)N(C)C(=O)C2(CCCC2)NC(=O)[C@@H]2CCCN2C(=O)[C@H](CCc2ccc(C(F)(F)F)c(F)c2)NC(=O)CN(C)C(=O)[C@H](CC2CCCCC2)N(C)C(=O)[C@@H]2CCN2C(=O)[C@H](C)N(C)C1=O` [Compound 1324] ([NEtLeu]I[NMeA][Aze][NMeCha][Sar][hPhe(3-F,4-CF3)]P[Ac5c][NMeGly(cPent)][NMeD]-NMe2; lactam N-11) yielded an IC50 of 1.2 nM. Molecule `C#CC[C@@H]1NC(=O)[C@H](Cc2cccc(I)c2)NC(=O)CN(C)C(=O)[C@H](Cc2ccc(F)cc2)N(C)C(=O)CN(C)C(=O)CN(C)C(=O)[C@H]([C@@H](C)CC)NC(=O)[C@H](CC(C)C)N(C)C(=O)C[C@@H](C(=O)N2CCCCC2)N(C)C(=O)[C@H](CC(C)C)NC(=O)C(C)(C)N(C)C1=O` [Compound 1327] ([NMeL]I[Sar][Sar][NMePhe(4-F)][Sar][Phe(3-I)][Pra][NMeAib]L[NMeD]-Piperidide; lactam N-11) has an IC50 of 72 nM. `CC[C@H](C)[C@@H]1NC(=O)[C@H](CC(C)C)N(C)C(=O)C[C@@H](C)NC(=O)[C@H](C2CCCC2)N(C)C(=O)C2(CCCC2)NC(=O)[C@@H](C)NC(=O)[C@H](CCc2ccc(C(F)(F)F)c(Cl)c2)NC(=O)CN(C)C(=O)[C@H](Cc2ccc(C)cc2)N(C)C(=O)[C@@H]2CCN2C(=O)[C@H](C)N(C)C1=O` [Compound 1328] (cyclo([Ac5c][NMeGly(cPent)][d(β3hA)][NMeL]I[NMeA][Aze][NMePhe(4-Me)][Sar][hPhe(3-Cl-4-CF3)][dA])) showed an IC50 of 220 nM. `CCO[C@@H]1C[C@H]2C(=O)NC3(CCCC3)C(=O)N(C)[C@@H]([C@@H](C)CC)C(=O)N(C)[C@H](C(=O)N3CCOCC3)CC(=O)N(C)[C@@H](CC(C)C)C(=O)N[C@@H]([C@@H](C)CC)C(=O)N(C)[C@@H](C)C(=O)N3CC[C@H]3C(=O)N(C)[C@@H](Cc3ccc(C(F)(F)F)cc3)C(=O)N(C)CC(=O)N[C@@H](CCc3ccc(C(F)(F)F)c(Cl)c3)C(=O)N2C1` [Compound 1330] ([NMeL]I[NMeA][Aze][NMePhe(4-CF3)][Sar][hPhe(3-Cl-4-CF3)][Hyp](Et)[Ac5c][NMeI][NMeD]-Morpholide; lactam N-11) gave an IC50 of 0.62 nM. `CC[C@H](C)[C@@H]1NC(=O)[C@H](CC(C)C)N(C)C(=O)C[C@@H](C(=O)N2CCOCC2)N(C)C(=O)[C@H](C2CCCCC2)N(C)C(=O)C2(CCCC2)NC(=O)[C@@H]2CCCN2C(=O)[C@H](CCc2ccc(C(F)(F)F)c(Cl)c2)NC(=O)CN(C)C(=O)[C@H](CC2CCCCC2)N(C)C(=O)CN(C)C(=O)CN(C)C1=O` [Compound 1333] ([NMeL]I[Sar][Sar][NMeCha][Sar][hPhe(3-Cl-4-CF3)]P[Ac5c][NMeChg][NMeD]-Morpholide; lactam N-11) showed an IC50 of 0.48 nM. `CC[C@H](C)[C@@H]1NC(=O)[C@H](CC(C)C)N(C)C(=O)C[C@@H](C(=O)N2CCOCC2)N(C)C(=O)[C@H](C2CCCCC2)N(C)C(=O)C2(CCCC2)NC(=O)[C@@H]2CC(F)(F)CN2C(=O)[C@H](CCc2cc(F)c(C(F)(F)F)c(F)c2)NC(=O)CN(C)C(=O)[C@H](CC2CCCCC2)N(C)C(=O)CN(C)C(=O)CN(C)C1=O` [Compound 1337] ([NMeL]I[Sar][Sar][NMeCha][Sar][hPhe(3,5-F2-4-CF3)][Pro(4,4-F2)][Ac5c][NMeChg][NMeD]-Morpholide; lactam N-11) showed an IC50 of 0.55 nM. Work on `CC[C@H](C)[C@@H]1NC(=O)[C@H](CC(C)C)N(C)C(=O)C[C@@H](C(=O)N2CCCC2)N(C)C(=O)[C@H](C2CCCC2)N(C)C(=O)C2(CCCC2)NC(=O)[C@@H]2CCCN2C(=O)[C@H](CCc2cc(F)c(C(F)(F)F)c(F)c2)NC(=O)CN(C)C(=O)[C@H](CC2CCCCC2)N(C)C(=O)CN(C)C(=O)CN(C)C1=O` [Compound 1342] ([NMeL]I[Sar][Sar][NMeCha][Sar][hPhe(3,5-F2-4-CF3)]P[Ac5c][NMeGly(cPent)][NMeD]-Pyrrolidide; lactam N-11) yielded an IC50 of 0.53 nM. In the case of `CC[C@H](C)[C@@H]1NC(=O)[C@H](CC(C)C)N(C)C(=O)C[C@@H](C(=O)N2CCCC2)N(C)C(=O)[C@H]([C@@H](C)CC)N(C)C(=O)C2(CCCC2)NC(=O)[C@@H]2CCCN2C(=O)[C@H](CCc2cc(F)c(C(F)(F)F)c(F)c2)NC(=O)CN(C)C(=O)[C@H](Cc2ccc(C(F)(F)F)cc2)N(C)C(=O)[C@@H]2CCN2C(=O)[C@H](C)N(C)C1=O` [Compound 1343] ([NMeL]I[NMeA][Aze][NMePhe(4-CF3)][Sar][hPhe(3,5-F2-4-CF3)]P[Ac5c][NMeI][NMeD]-Pyrrolidide; lactam N-11), the IC50 is reported as 0.61 nM. `C#CC[C@@H]1NC(=O)[C@H](Cc2cccc(I)c2)NC(=O)CN(C)C(=O)[C@H](Cc2ccc(F)cc2)N(C)C(=O)[C@@H]2CCN2C(=O)CN(C)C(=O)[C@H]([C@@H](C)CC)NC(=O)[C@H](CC(C)C)N(C)C(=O)C[C@@H](C(=O)N2CCCCC2)N(C)C(=O)[C@H](CC(C)C)NC(=O)C(C)(C)N(C)C1=O` [Compound 1344] ([NMeL]I[Sar][Aze][NMePhe(4-F)][Sar][Phe(3-I)][Pra][NMeAib]L[NMeD]-Piperidide; lactam N-11) was tested, and the IC50 was 190 nM.

Source: patent US12371454B2, “Cyclic peptide compound having Kras inhibitory action” (priority 2019, dated 2025)
